Legend:
[1] = target: T1, Avi-KRAS G12R (1-169) GppNHp/RAF1 RBD-3×FLAG (52-151) (Homo sapiens, UniProt P01116, G12R); assay: Disrupting RAS-effector binding HTRF assay, Raf1 RBD-KRAS G12R-GppNHp; conditions: PPI HTRF, 50 nM Avi-KRAS G12R GppNHp, compound titration 30-0.0045 μM; read-out: Raf1 RBD-KRAS G12R-GppNHp disruption
T1 construct: 50 nM Avi-KRAS G12R (1-169) GppNHp/RAF1 RBD-3×FLAG (52-151)
Description: (§1) A protein:protein interaction (PPI) Homogeneous Time Resolved Fluorescence (HTRF) assay was used to determine the effectiveness of compounds of the present disclosure in disrupting KRAS protein and effector RAF1 binding.
(§2) The HTRF assay used the following reagents and proteins: (i) 50 nM Avi-KRAS G12D (1-169) GppNHp/RAF1 RBD-3×FLAG (52-151); (ii) 50 nM Avi-KRAS G12R (1-169) GppNHp/RAF1 RBD-3×FLAG (52-151); (iii) 50 nM Avi-KRAS G12V (1-169) GppNHp/RAF1 RBD-3×FLAG (52-151), (iv) 50 nM Avi-KRAS WT (1-169) GppNHp/RAF1 RBD-3×FLAG (52-151); and (v) 75 nM Avi-RAF1 RBD-3×FLAG. The assay buffer included: 50 mM Tris pH 7.5, 100 mM NaCl, 5 mM MgCl2, 0.1% BSA, […], 10% DMSO. The bead buffer included: 50 mM Tris pH 7.5, 0.01% o Tween 20. Assay volume of 20 μL was used in a 384 well plate-low volume format. Compound titration: 30-0.0045 μM, 3× dilution series.
(§3) The HTRF assay employed the following protocol:
(§4) Compounds were dispensed in assay plate (384-well, Grenier Bione #784075) using Echo (model 555) with dose response settings: 200 nL final volume, titration from 30 μM as a 10-point dilution series. Protein mix was prepared in assay buffer, and dispensed on plates, 10 μL per well, then incubated for 1 h at room temperature, with 700 rpm shaking. Reagents mix was prepared and dispensed on plates, 10 μL per well, then incubated for 1 h at room temperature, with 700 rpm shaking.
(§5) Plates were analyzed on an Envision plate reader using the following setting: Excitation 320 nm, Bandwidth 75 nM; Emission 615 nm, Bandwidth 85 nM, Gain 100%, Flashes 100, Lag 60 μs. Data were reported as percentage of activity, with DMSO as 100%. Data were plotted and analyzed using Prism 8.
(§6) The biochemical Raf1-KRAS G12D/G12R/G12V/WT-GppNHP disruption assay IC50 of selected compounds described herein are shown in Table 4.

[2] = target: T2, Avi-KRAS G12D (1-169) GppNHp/RAF1 RBD-3×FLAG (52-151) (Homo sapiens, UniProt P01116, G12D); assay: Disrupting RAS-effector binding HTRF assay, Raf1 RBD-KRAS G12D-GppNHp; conditions: PPI HTRF, 50 nM Avi-KRAS G12D GppNHp, compound titration 30-0.0045 μM; read-out: Raf1 RBD-KRAS G12D-GppNHp disruption
T2 construct: 50 nM Avi-KRAS G12D (1-169) GppNHp/RAF1 RBD-3×FLAG (52-151)
Description: as §1, §2, §3, §4, §5, §6

[3] = system: KRAS G12D protein/effector signaling in GP2d cells; assay: Cell-based pERK HTRF assay in GP2d cell; conditions: 1 h, 60 min incubation
Description: A pERK assay (Perkin Elmer) was used to determine the effectiveness of compounds in disrupting KRAS G12D protein/effector signaling in cells.
On Day 1, cells (GP2d) were seeded into 96-well plates at 3×10^4 cells/well in 80 μL complete growth media (DMEM, 10% FBS).
On Day 2, cells were treated with compounds at 0.25% DMSO. The source plate was created with compounds diluted in media at 5-fold the final assay concentration. The compounds were run in a 9-point concentration curve starting at […], with a half-log dilution between concentrations. 20 μL was transferred onto the cell plates (final volume in wells was 100 μL). Plates were harvested after 60 min incubation by aspirating media and adding kit-supplied 1× supplemented lysis buffer to all wells (50 μL per well). Plates were then placed on a plate shaker and incubated at 850 rpm for an additional 30 min.
Antibody mixture solution was prepared by diluting aliquoted d2 and Eu Cryptate antibodies 1:20 in kit supplied detection buffer, and mixing the diluted antibodies solutions (1:1 v:v). 4 μL of this solution was then added to a 384-well detection plate (Perkin Elmer; 6008230).
Samples were homogenized by pipetting up and down and then transferred (16 μL of cell lysates) from the 96-well cell culture plate to two wells of the HTRF 384-well detection plate containing the antibody solution. Plates were centrifuged (524 g for 1 min) and allowed to incubate between 4 and 24 h at room temperature. Maximum signal was reached after 4 h incubation time and remained stable over a period of 24 hours. Therefore, readings could be made between 4 and 24 h of incubation. Plates were centrifuged again (524 g for 1 min), then analyzed on the EnVision plate reader using the following settings: Excitation 320 nm, Bandwidth 75 nm; Emission 615 nm, Bandwidth 85 nm; Gain 100%; Flashes 100; Lag 60 μs.

[4] = target: T3, Avi-KRAS WT (1-169) GppNHp/RAF1 RBD-3×FLAG (52-151) (Homo sapiens, UniProt P01116); assay: Disrupting RAS-effector binding HTRF assay, Raf1 RBD-KRAS WT-GppNHp; conditions: PPI HTRF, 50 nM Avi-KRAS WT GppNHp, compound titration 30-0.0045 μM; read-out: Raf1 RBD-KRAS WT-GppNHp disruption
T3 construct: 50 nM Avi-KRAS WT (1-169) GppNHp/RAF1 RBD-3×FLAG (52-151)
Description: as §1, §2, §3, §4, §5, §6

[5] = target: T4, Avi-KRAS G12V (1-169) GppNHp/RAF1 RBD-3×FLAG (52-151) (Homo sapiens, UniProt P01116, G12V); assay: Disrupting RAS-effector binding HTRF assay, Raf1 RBD-KRAS G12V-GppNHp; conditions: PPI HTRF, 50 nM Avi-KRAS G12V GppNHp, compound titration 30-0.0045 μM; read-out: Raf1 RBD-KRAS G12V-GppNHp disruption
T4 construct: 50 nM Avi-KRAS G12V (1-169) GppNHp/RAF1 RBD-3×FLAG (52-151)
Description: as §1, §2, §3, §4, §5, §6

T2 sequence (P01116 1-169 isoform P01116-2 G12D limits assumed): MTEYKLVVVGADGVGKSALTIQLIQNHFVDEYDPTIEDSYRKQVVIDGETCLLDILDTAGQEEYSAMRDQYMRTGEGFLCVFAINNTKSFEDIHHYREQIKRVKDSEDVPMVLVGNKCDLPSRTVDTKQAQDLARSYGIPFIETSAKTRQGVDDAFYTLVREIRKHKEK
T1 sequence (P01116 1-169 isoform P01116-2 G12R limits assumed): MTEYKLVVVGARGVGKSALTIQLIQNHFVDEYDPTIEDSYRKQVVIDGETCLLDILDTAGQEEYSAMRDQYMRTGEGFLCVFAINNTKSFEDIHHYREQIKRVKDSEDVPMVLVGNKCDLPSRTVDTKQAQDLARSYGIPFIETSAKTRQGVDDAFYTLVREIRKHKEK
T3 sequence (P01116 1-169 isoform P01116-2 limits assumed): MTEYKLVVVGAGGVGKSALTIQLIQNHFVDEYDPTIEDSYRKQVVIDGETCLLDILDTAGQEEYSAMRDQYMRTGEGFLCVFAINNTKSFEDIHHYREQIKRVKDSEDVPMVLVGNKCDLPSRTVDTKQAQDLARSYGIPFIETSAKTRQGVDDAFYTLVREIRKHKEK
T4 sequence (P01116 1-169 isoform P01116-2 G12V limits assumed): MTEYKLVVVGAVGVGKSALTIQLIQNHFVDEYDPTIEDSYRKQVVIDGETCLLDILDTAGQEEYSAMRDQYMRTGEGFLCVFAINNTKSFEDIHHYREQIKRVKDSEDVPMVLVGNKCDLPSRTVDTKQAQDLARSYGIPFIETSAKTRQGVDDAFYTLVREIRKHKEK

| Compound | IC50 [1] | IC50 [2] | IC50 [3] | IC50 [4] | IC50 [5] |
| --- | --- | --- | --- | --- | --- |
| COc1nc(N(C)[C@@H]2CCNC2)c2cc(C(F)(F)F)c(-c3ccc(F)c4sc(N)c(C#N)c34)c(F)c2n1 [Compound 59] | > 10 µM | 1 to 10 µM | 0.1 to 1 µM | > 10 µM | > 10 µM |
| COCCOc1nc(N2CC3CCC(C2)N3)c2cc(C(F)(F)F)c(-c3ccc(F)c4sc(N)c(C#N)c34)c(F)c2n1 [Compound 15] | > 10 µM | 1 to 10 µM | ≤ 0.1 µM | 1 to 10 µM | > 10 µM |
| N#Cc1c(N)sc2c(F)ccc(-c3c(C(F)(F)F)cc4c(N5CC6CCC(C5)N6)nc(N5CCNS(=O)(=O)CC5)nc4c3F)c12 [Compound 26] | > 10 µM | 1 to 10 µM | 0.1 to 1 µM | 1 to 10 µM | > 10 µM |
| CCCc1nc(N2CC3CCC(C2)N3)c2cc(C(F)(F)F)c(-c3ccc(F)c4sc(N)c(C#N)c34)c(F)c2n1 [Compound 23] | > 10 µM | 1 to 10 µM | ≤ 0.1 µM | 1 to 10 µM | > 10 µM |
| N#Cc1c(N)sc2c(F)ccc(-c3c(C(F)(F)F)cc4c(N5CC6CCC(C5)N6)nc(N5CC[C@@H](O)C5)nc4c3F)c12 [Compound 6] | > 10 µM | 1 to 10 µM | 0.1 to 1 µM | 1 to 10 µM | > 10 µM |
| N#Cc1c(N)sc2c(F)ccc(-c3c(C(F)(F)F)cc4c(N5CC6CCC(C5)N6)nc(OC5CC(O)C5)nc4c3F)c12 (stereo not shown) [Compound 11] | > 10 µM | 1 to 10 µM | 0.1 to 1 µM | > 10 µM | > 10 µM |
| N#Cc1c(N)sc2c(F)ccc(-c3c(C(F)(F)F)cc4c(N5CC6CCC(C5)N6)nc(OC[C@@H]5CC(=O)N5)nc4c3F)c12 [Compound 39] | > 10 µM | 1 to 10 µM | 0.1 to 1 µM | 1 to 10 µM | > 10 µM |
| N#Cc1c(N)sc2c(F)ccc(-c3c(C(F)(F)F)cc4c(N5C[C@H]6CC[C@@H](C5)N6)ncnc4c3F)c12 [Compound 5, 4-(4-((1R,5S)-3,8-diazabicyclo[3.2.1]octan-3-yl)-8-fluoro-6-(trifluoromethyl)quinazolin-7-yl)-2-amino-7-fluorobenzo[b]thiophene-3-carbonitrile] | > 10 µM | 1 to 10 µM | ≤ 0.1 µM | 1 to 10 µM | > 10 µM |
| N#Cc1c(N)sc2c(F)ccc(-c3c(C(F)(F)F)cc4c(N5CC6CCC(C5)N6)nc(OC5CCC5)nc4c3F)c12 [Compound 17] | > 10 µM | 1 to 10 µM | 0.1 to 1 µM | 1 to 10 µM | > 10 µM |
| N#Cc1c(N)sc2c(F)ccc(-c3c(C(F)(F)F)cc4c(N5CC6CCC(C5)N6)nc(OCC5CCCCC5)nc4c3F)c12 [Compound 2] | > 10 µM | > 10 µM |  | > 10 µM | > 10 µM |
| N#Cc1c(N)sc2c(F)ccc(-c3c(C(F)(F)F)cc4c(N5CC6CCC(C5)N6)nc(OCCc5cn[nH]c5)nc4c3F)c12 [Compound 19] | > 10 µM | 1 to 10 µM | ≤ 0.1 µM | 1 to 10 µM | > 10 µM |
| N#Cc1c(N)sc2c(F)ccc(-c3c(C(F)(F)F)cc4c(N5CC6CCC(C5)N6)nc(N5CCC5)nc4c3F)c12 [Compound 14] | > 10 µM | 1 to 10 µM | 0.1 to 1 µM | 1 to 10 µM | > 10 µM |
| CC(=O)N(C)c1nc(N2C[C@H]3CC[C@@H](C2)N3)c2cc(C(F)(F)F)c(-c3ccc(F)c4sc(N)c(C#N)c34)c(F)c2n1 [Compound 21, N-(7-(2-amino-3-cyano-7-fluorobenzo[b]thiophen-4-yl)-4-((1R,5S)-3,8-diazabicyclo[3.2.1]octan-3-yl)-8-fluoro-6-(trifluoromethyl)quinazolin-2-yl)-N-methylacetamide] | > 10 µM | > 10 µM | 0.1 to 1 µM | 1 to 10 µM | > 10 µM |
| CCCOc1nc(N2CC3CCC(C2)N3)c2cc(C(F)(F)F)c(-c3ccc(F)c4sc(N)c(C#N)c34)c(F)c2n1 [Compound 3] | > 10 µM | 1 to 10 µM | 0.1 to 1 µM | 1 to 10 µM | > 10 µM |
| CN(C)c1nc(N2C[C@H]3CC[C@@H](C2)N3)c2cc(C(F)(F)F)c(-c3ccc(F)c4sc(N)c(C#N)c34)c(F)c2n1 [Compound 10, 4-(4-((1R,5S)-3,8-diazabicyclo[3.2.1]octan-3-yl)-2-(dimethylamino)-8-fluoro-6-(trifluoromethyl)quinazolin-7-yl)-2-amino-7-fluorobenzo[b]thiophene-3-carbonitrile] | > 10 µM | 1 to 10 µM | > 1 µM | > 10 µM | > 10 µM |
| CC(C)Oc1nc(N2CC3CCC(C2)N3)c2cc(C(F)(F)F)c(-c3ccc(F)c4sc(N)c(C#N)c34)c(F)c2n1 [Compound 8] | > 10 µM | 1 to 10 µM | 0.1 to 1 µM | 1 to 10 µM | > 10 µM |
| CN(C(=O)c1cnn(C)c1)c1nc(N2CC3CCC(C2)N3)c2cc(C(F)(F)F)c(-c3ccc(F)c4sc(N)c(C#N)c34)c(F)c2n1 [Compound 27] | > 10 µM | > 10 µM | 0.1 to 1 µM | 1 to 10 µM | > 10 µM |
| CN(c1ncnc2c(F)c(-c3ccc(F)c4sc(N)c(C#N)c34)c(C(F)(F)F)cc12)[C@@H]1CCNC1 [Compound 58] | > 10 µM | 1 to 10 µM | 0.1 to 1 µM | > 10 µM | > 10 µM |
| Cc1nc(N2C[C@H]3CC[C@@H](C2)N3)c2cc(C(F)(F)F)c(-c3ccc(F)c4sc(N)c(C#N)c34)c(F)c2n1 [Compound 22, 4-(4-((1R,5S)-3,8-diazabicyclo[3.2.1]octan-3-yl)-8-fluoro-2-methyl-6-(trifluoromethyl)quinazolin-7-yl)-2-amino-7-fluorobenzo[b]thiophene-3-carbonitrile] | > 10 µM | 1 to 10 µM | ≤ 0.1 µM | 1 to 10 µM | > 10 µM |
